“And” between values parts separate entries of the source, which are not always exact repeats. Identical values can stand only once. Each block holds one molecule with its values, some of them ahead of it.
Tests used:
[1] = MTT assay, cytotoxicity against normal breast cell line MCF-10a; conditions: human; for IC50 at 48 h: MCF-10a normal breast cells
Procedure: (§1) Human breast cancer cell line MCF-7 and normal breast cell line MCF-10a were obtained from American type culture collection, MCF-7 cells were cultured using Dulbecco’s Modified Eagle Medium DMEM (Invitrogen/Life Technologies) supplemented with 10% FBS (Hyclone), 10 µg/ml of insulin (Sigma), and 1% penicillin-streptomycin. MCF-10a cell line was cultured using DMEM medium supplemented with 10% FBS, 1% sodium pyruvate, 1% MEM NEAA, 20 ng/ml human epidermal growth factor (HEGF), 10 μg/ml insulin and 0.05 mM hydrocortisone. The cells were incubated at 37 °C in a humidified atmosphere of 5% CO2.
(§2) The anticancer effect of phenoxychalcones and N-acetylpyrazolines on the viability of both tumour and normal cells was evaluated using МТТ assay as a rapid colorimetric assay. It is based on the ability of mitochondrial dehydrogenases of viable cells to reduce yellow tetrazolium salt MTT to blue formazan in quantities proportional to the number of living cells. The cells were incubated with the medium alone or with the tested compounds at concentrations of 100 µM, 25 µM, 6.25 µM, 1.56 µM and 0.39 µM for 48 h. […] Then, 20 μL MTT solution was added to each well and mixed. After 4 h, the supernatants were removed and 100 μL DMSO was added to each well to dissolve the precipitate. The viability of cells was estimated by measuring the absorbance at 570 nm using a Bioline ELIZA plate reader. The cell viability percentage was calculated based on the absorbance ratio between cell culture treated with the compounds and the untreated control multiplied by 100. Selectivity index (SI) was calculated as the ratio of cytotoxicity (IC50) on normal cells (MCF-10a) to cancer cells (MCF-7).

[2] = tested on: MCF-7 breast cancer cell line; assay: MTT assay, cytotoxicity against breast cancer cell line MCF-7; conditions: for IC50: Homo sapiens, MCF7, 48 h, read-out: In vitro cytotoxicity IC50 MCF-7; for Selectivity index: ratio of IC50 on normal cells (MCF-10a) to cancer cells (MCF-7)
Procedure: as §1, §2

[3] = tested on: MCF-7; conditions: reported chalcones of Figure 1; cited from earlier work
[4] = tested on: leukemia; parameters: method as in PMID 31927336, PMID 22503741; conditions: reported chalcone of Figure 1; cited from earlier work
[5] = tested on: C6 and Hela cell lines; parameters: method as in PMID 31927336, PMID 22503741; conditions: reported chalcone of Figure 1; cited from earlier work
[6] = tested on: MCF-7 cells; assay: Annexin V-FITC/PI apoptosis assay by flow cytometry; format: cell-based, human; conditions: 24 h
Procedure: Apoptosis assessment was carried out by flow cytometry using Annexin V-FITC and propidium iodide double-staining apoptosis detection kit (Biovision, USA) according to the manufacturer instructions. Annexin V is a protein with high affinity for phosphatidylserine (PS). The latter is a cell membrane component that translocate from the inner face of the plasma membrane to the cell surface soon after initiating apoptosis. […] The cells were then collected by centrifugation and re-suspended in 500 μL of binding buffer. Annexin V-FITC and PI double staining was performed by adding 5 μL of Annexin V-FITC and 5 μL of PI. The cells were then incubated in dark, at room temperature for 5 min. After incubation, cell fluorescence was evaluated using FacsCalibur (BD Biosciences, USA). Dot-plot graphs were used to illustrate the results.

[7] = tested on: p38 MAPK (phosphorylated and total) in MCF-7 cells; assay: p38 MAPK (phosphorylated and total) ELISA in treated cells; format: cell-based, human; conditions: MCF-7, 1.52 µM, vs untreated cells
Procedure: Measurements were performed using ELISA kits (R&D systems, Minneapolis, MN, USA ELISA (Cat. # KHO0071) and p38 MAPK (Total) ELISA, according to the manufacturer’s instructions.

[8] = tested on: MCF-7 cells; assay: Cell cycle analysis by propidium iodide flow cytometry; format: cell-based, human
Procedure: The cell cycle analysis was carried out by flow cytometry using ab139418_propidium iodide flow cytometry kit/BD (Abcam, Cambridge, UK) according to the manufacturer instructions. […] After treatment, the cells were washed twice with ice-cold phosphate buffer saline (PBS) and collected by centrifugation. The cells were then fixed using ice-cold 66% (v/v) ethanol, washed with PBS, and re-suspended with 0.1 mg/mL RNase to digest cellular RNA and thus minimise stained RNA in the background. The cells were then stained with […] propidium iodide (PI), a fluorescent molecule with the ability to bind to nucleic acid. PI binds to the DNA in cells in proportion to its amount. As the DNA content is different among cells in different phases of cell cycle, the stage of cell growth can be determined based on fluorescence intensity. Cell fluorescence was evaluated using FacsCalibur (BD Biosciences, USA) and analysed using Cell- Quest software (Becton Dickinson)[41]. Cell cycle analysis of MCF-7 cells without any treatment was used as control.

[9] = tested on: MCF-7 cells; assay: Intracellular reactive oxygen species (ROS) analysis with H2DCFDA; format: cell-based, human; conditions: MCF-7, 1.52 µM
Procedure: Intracellular ROS was detected by cell-permeable fluorogenic probe H2DCFDA. Cell culture subdivided into three groups. The groups are the negative control (untreated MCF-7 cells), the positive control group (MCF-7 cells treated with H2O2), and test group (MCF-7 cells treated with compound 2c). After removing the culture supernatants, the cells were then incubated in fresh medium with 10 µM H2DCFDA at the dark at 37 °C for 1 h. The cells were washed with PBS buffer, then, harvested and the pellets were suspended in PBS. Samples were analysed ROBONIK P2000 ELISA reader wavelength 450 nm.

[10] = MCF-7, 1.52 µM, in comparison to the control (DMSO)
[11] = MCF-7, 1.52 µM, relative to control (DMSO)

SMILES: O=C(C=Cc1ccc(Oc2ccc(Br)cc2)cc1)c1ccc(Cl)cc1 [Compound 2a, 3–(4-(4-Bromophenoxy)phenyl)-1–(4-chlorophenyl)prop-2-en-1-one]
IC50 at 48 h [1]: 33.4 ± 1.34 µM
melting point: 150 to 152 °C
IC50 [2]: 8.51 ± 0.16 µM
Selectivity index [2]: 3.92

SMILES: CCn1cc(/C=C/C(=O)c2ccc(Br)cc2)c(-c2ccc(OC)cc2)n1 [IX]
IC50 [3]: 18.7 µM

SMILES: COc1ccc(C(=O)/C=C/c2ccc(Cl)cc2)c(Oc2cc(OC)c(OC)c(OC)c2)c1 [III]
IC50 [3]: 4.39 ± 0.26 µM

SMILES: O=C(/C=C/c1ccc(Br)cc1)c1c(O)cccc1OCc1ccccc1 [IV]
activity against leukemia [4]: Effective against leukemia

SMILES: COc1ccc(/C=C/C(=O)c2ccc(OC)cc2Oc2cc(OC)c(OC)c(OC)c2)cc1 [I]
IC50 [3]: 3.44 ± 0.19 µM

SMILES: Nc1ccc(C(=O)/C=C/c2cccc(Cl)c2)cc1 [VII]
IC50 [3]: 34.2 ± 6.4 µM

SMILES: O=C(/C=C/c1ccc(Oc2ccc(Cl)cc2)cc1)c1ccc(N2CCOCC2)cc1 [V]
activity against C6 and Hela cell lines [5]: Effective against C6 and Hela cell lines

SMILES: O=C(/C=C/c1cc(Br)ccc1O)c1ccc(Br)cc1 [VIII]
IC50 [3]: 3.82 ± 0.022 µM

SMILES: Cc1ccc(C(=O)C=Cc2ccc(Oc3ccc(Br)cc3)cc2)cc1 [Compound 2c, 3–(4-(4-Bromophenoxy)phenyl)-1-(p-tolyl)prop-2-en-1-one]
apoptotic cells percentage, early apoptosis ([6]; MCF-7, 1.52 µM (IC50)): 5.17%
apoptotic cells percentage, late apoptosis ([6]; MCF-7, 1.52 µM (IC50)): 21.96%
percentage necrosis ([6]; MCF-7, 1.52 µM (IC50)): 2.28%
percentage of total apoptosis ([6]; MCF-7, 1.52 µM (IC50)): 29.41%
elevation in late apoptosis, fold more than control ([6]; MCF-7, 1.52 µM): 57.78 fold
increase in early apoptosis, fold more than control ([6]; MCF-7, 1.52 µM): 9.0 fold
increase in total apoptosis, fold compared to the control ([6]; MCF-7, 1.52 µM): 16.24 fold
IC50 [1]: 23.2 ± 0.88 µM
down-regulation of total p38 MAPK [7]: ~40%
interference with p38 MAPK phosphorylation (decrease of phosphorylated p38 MAPK) [7]: ~60%
phase of cell cycle arrest ([8]; MCF-7, 1.52 µM): G2/M phase
cell population %G0/G1 ([8]; MCF-7, 1.52 µM (IC50), 24 h): 24.92%
cell population %G2/M ([8]; MCF-7, 1.52 µM (IC50), 24 h): 45.86%
cell population %Pre G1 ([8]; MCF-7, 1.52 µM (IC50), 24 h): 29.41%
cell population %S ([8]; MCF-7, 1.52 µM (IC50), 24 h): 29.22%
augmentation of proportion of cells in the G2/M phase [8, 10]: 4.25 fold
augmentation of proportion of cells in the pre-G1 phase [8, 10]: 16.24 fold
decline in the cell population at the G0/G1 phase [8, 11]: 54.73%
decline in the cell population at the S phase [8, 11]: 14.5%
ROS induction higher than control [9]: 10%
fold more active than 2a [2]: 5.6 fold
fold more active than 2b [2]: 8.7 fold
IC50 [2]: 1.52 ± 0.03 µM
Selectivity index [2]: 15 and 15.24

SMILES: Cc1ccc(C(=O)/C=C/c2cccc(Cl)c2Oc2c([N+](=O)[O-])cc(C(F)(F)F)cc2[N+](=O)[O-])cc1 [II]
IC50 [3]: 0.03 ± 0.002 µM

Now from value to molecule, other results behind:

melting point: 164 to 166 °C
SMILES: O=C(C=Cc1ccc(Oc2ccc(Br)cc2)cc1)c1ccc(Br)cc1 [Compound 2b, 3–(4-(4-Bromophenoxy)phenyl)-1–(4-bromophenyl)prop-2-en-1-one]
IC50 at 48 h [1]: 25.3 ± 1.17 µM
IC50 [2]: 13.3 ± 0.53 µM
Selectivity index [2]: 1.91

melting point: 136 to 138 °C
SMILES: Cc1ccc(C(=O)C=Cc2ccc(Oc3ccc(Cl)cc3)cc2)cc1 [Compound 2f, 3–(4-(4-Chlorophenoxy)phenyl)-1-(p-tolyl)prop-2-en-1-one]
IC50 at 48 h [1]: 20.6 ± 0.37 µM
IC50 [2]: 1.87 ± 0.02 µM
fold more active than 2e ([2]; MCF-7 IC50 compared with chalcone 2e): 23.6 fold
fold more active than 2d ([2]; MCF-7 IC50 compared with chalcone 2d): 10.6 fold
Selectivity index [2]: 11.03

melting point: 117 to 119 °C
SMILES: CC(=O)N1N=C(c2ccc(Br)cc2)CC1c1ccc(Oc2ccc(Cl)cc2)cc1 (stereo not drawn) [Compound 3e, 1–(3-(4-Bromophenyl)-5–(4-(4-chlorophenoxy)phenyl)-4,5-dihydro-1H-pyrazol-1-yl) ethanone]
IC50 at 48 h [1]: 10.1 ± 0.62 µM
IC50 [2]: 5.02 ± 0.22 µM
Selectivity index [2]: 2.02

melting point: 138 to 140 °C
SMILES: CC(=O)N1N=C(c2ccc(Br)cc2)CC1c1ccc(Oc2ccc(Br)cc2)cc1 (stereo not drawn) [Compound 3b, 1–(5-(4–(4-Bromophenoxy)phenyl)-3–(4-bromophenyl)-4,5-dihydro-1H-pyrazol-1-yl) ethanone]
IC50 at 48 h [1]: 11.5 ± 0.47 µM
IC50 [2]: 17.2 ± 0.62 µM
Selectivity index [2]: 0.67

melting point: 118 to 120 °C
SMILES: CC(=O)N1N=C(c2ccc(C)cc2)CC1c1ccc(Oc2ccc(Cl)cc2)cc1 (stereo not drawn) [Compound 3f, 1–(5-(4–(4-Chlorophenoxy)phenyl)-3-(p-tolyl)-4,5-dihydro-1H-pyrazol-1-yl) ethanone]
IC50 at 48 h [1]: 12.2 ± 0.79 µM
IC50 [2]: 4.77 ± 0.13 µM
Selectivity index [2]: 2.55

melting point: 116 to 118 °C
SMILES: CC(=O)N1N=C(c2ccc(Cl)cc2)CC1c1ccc(Oc2ccc(Cl)cc2)cc1 (stereo not drawn) [Compound 3d, 1–(5-(4–(4-Chlorophenoxy)phenyl)-3–(4-chlorophenyl)-4,5-dihydro-1H-pyrazol-1-yl) ethanone]
IC50 at 48 h [1]: 45.7 ± 1.36 µM
IC50 [2]: 8.51 ± 0.27 µM
Selectivity index [2]: 5.37

melting point: 143 to 145 °C
SMILES: O=C(C=Cc1ccc(Oc2ccc(Cl)cc2)cc1)c1ccc(Br)cc1 [Compound 2e, 1–(4-Bromophenyl)-3–(4-(4-chlorophenoxy)phenyl)prop-2-en-1-one]
IC50 at 48 h [1]: 22.1 ± 1.08 µM
IC50 [2]: 44.2 ± 2.16 µM
Selectivity index [2]: 0.50

melting point: 120 to 122 °C
SMILES: O=C(C=Cc1ccc(Oc2ccc(Cl)cc2)cc1)c1ccc(Cl)cc1 [Compound 2d, 3–(4-(4-Chlorophenoxy)phenyl)-1–(4-chlorophenyl)prop-2-en-1-one]
IC50 at 48 h [1]: 33.1 ± 1.42 µM
IC50 [2]: 19.9 ± 0.66 µM
Selectivity index [2]: 1.67

melting point: 142 to 144 °C
SMILES: CC(=O)N1N=C(c2ccc(Cl)cc2)CC1c1ccc(Oc2ccc(Br)cc2)cc1 (stereo not drawn) [Compound 3a, 1–(5-(4–(4-Bromophenoxy)phenyl)-3–(4-chlorophenyl)-4,5-dihydro-1H-pyrazol-1-yl) ethanone]
IC50 at 48 h [1]: 55.8 ± 1.92 µM
IC50 [2]: 10.6 ± 0.39 µM
Selectivity index [2]: 5.29

melting point: 141 to 143 °C
SMILES: CC(=O)N1N=C(c2ccc(C)cc2)CC1c1ccc(Oc2ccc(Br)cc2)cc1 (stereo not drawn) [Compound 3c, 1–(5-(4–(4-Bromophenoxy)phenyl)-3-(p-tolyl)-4,5-dihydro-1H-pyrazol-1-yl)ethanone]
IC50 at 48 h [1]: 19.5 ± 0.69 µM
IC50 [2]: 7.42 ± 0.28 µM
Selectivity index [2]: 2.63

Reference: PMC8667918, “Synthesis and biological evaluation of halogenated phenoxychalcones and their corresponding pyrazolines as cytotoxic agents in human breast cancer” (Journal of Enzyme Inhibition and Medicinal Chemistry, 2021)
